Like-named read-outs stand apart in the source and are kept apart here.
Experiments:
FAAH = target: T1, FAAH (Mus musculus, UniProt O08914); assay: tissue distribution after co-dosing prodrug ABX-002 with or without PFI or GFI; type: in vivo, mice; settings: plasma, liver and brain, co-dosing with PFI or GFI
T1 construct: from tissue; host or cells: living mice; plasma, liver and brain sampled
T1 sequence (O08914 1-579): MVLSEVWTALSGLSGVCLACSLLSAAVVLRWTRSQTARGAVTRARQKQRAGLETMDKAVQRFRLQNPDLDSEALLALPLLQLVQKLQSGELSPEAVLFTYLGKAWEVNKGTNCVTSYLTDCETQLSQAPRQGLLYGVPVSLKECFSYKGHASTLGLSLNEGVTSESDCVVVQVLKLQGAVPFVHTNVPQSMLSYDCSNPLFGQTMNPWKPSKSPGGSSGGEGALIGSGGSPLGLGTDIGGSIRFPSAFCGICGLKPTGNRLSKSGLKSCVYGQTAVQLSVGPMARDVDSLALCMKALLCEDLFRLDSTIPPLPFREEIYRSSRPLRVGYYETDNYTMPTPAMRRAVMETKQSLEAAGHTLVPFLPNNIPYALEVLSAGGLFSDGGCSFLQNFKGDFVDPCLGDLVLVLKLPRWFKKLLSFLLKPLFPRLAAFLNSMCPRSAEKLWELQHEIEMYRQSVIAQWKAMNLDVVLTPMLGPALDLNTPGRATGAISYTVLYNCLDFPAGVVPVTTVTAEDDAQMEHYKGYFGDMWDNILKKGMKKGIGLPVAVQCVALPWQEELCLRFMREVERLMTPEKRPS
Experimental: The ability of globally-penetrant and peripherally-restricted FAAH inhibitors (GFI & PFI, respectively) to alter distribution of ABX-002 and ABX-002A was assessed.
Table 5 depicts the inhibition of active metabolite (LL-650177 or PF-044578454) in AUC in the plasma, liver, and brain after prodrug (ABX-002) co-dosing. Tissue distribution studies in mice confirm global & peripheral inhibition of FAAH.

T3-regulated genes = assay: gene expression in brain and liver after 7 days PO QD dosing; type: in vivo, Female C57BL/6 mice; settings: Mus musculus, PO QD 7 days, 4 or 8 h after last dose
Experimental: Female C57BL/6 mice (n=5/group), 6-8 weeks old, were acclimated to the study room for at least 3 days before dose administration in the studies. Mice were dosed at 5 mL/kg based on most recent body weight, collected once for the duration of the study. Based on most recent body weight, collected once for the duration of the study, mice were placed into weight-matched treatment dosing cohorts. Mice were given a single administration of PFI or vehicle orally (PO) daily (n=5/group) for 7 days at time=−1 hour. Following the PFI (100 μg/kg) or vehicle dose (10 mL/kg, p.o.), animals were given test article daily at time=0 hour. Test article administration one of eight dose levels (0.1, 0.3, 1, 3, 10, 30, 100 or 300 μg/kg) on Days 1-7 for a total of seven doses. Mice were dosed PO, QD for 7 days with (A) active metabolite or (B) prodrug alone; (C) prodrug+PFI (LL-650177) or (D) prodrug+GFI. […] RNA from samples harvested 4 hours after final dose was quantified using a hybridization-based in situ RNA quantification method (NanoString, Seattle, WA), as described below. RNA from samples harvested 8 hours after final dose was quantified using a hybridization-based in situ RNA quantification method (QuantiGene Plex), as described below. […]

CNC(=O)COc1cc(Cl)c(Cc2ccc(O)c(C(C)C)c2)c(Cl)c1 [Compound 1]
prodrug levels with FAAH inhibition (FAAH): did not change or slightly increased
ED50 (T3-regulated genes; gene expression in brain, read-out: Brain (ED50 mg/kg)): 0.044 mg/kg
ED50 (T3-regulated genes; gene expression in liver, read-out: Liver (ED50 mg/kg)): 0.0025 mg/kg
